Results reported in patent publication US8114412B2, “T. cruzi-derived neurotrophic agents and methods of use therefor” (priority 1999, dated 2012).
“Also recorded” adds a separate entry of the source.

Experiments:
PC12 cells [1] = experiment: Reversal of TS-induced neuroprotection by PI-3 kinase inhibitors in PC12 cells; format: cell-based, rat; design: neuronal viability relative to TS-F without wortmannin / neuronal viability relative to TS-F+CNTF without wortmannin: dose or concentration left out as unconfirmed
Procedure: (§1) Protection against apoptosis of PC12 cells in serum-free medium containing a test agent (agent N)(e.g., protection induced by TS, TS fragments, NGF or other growth factors), was calculated by the formula: 100%-[(apoptosis(%) of cells kept in RPMI containing test agent N÷apoptosis (%) of cells kept in RPMI)×100%]. Testing the effect of wortmannin (Sigma) and LY294002 (Sigma) in inhibiting the neuroprotection of TS was performed following the protocol described by others (Yao and Cooper, Science, 267:2003-2006 (1995); D'Mello et al., J. Neurosci 17:1548-1560 (1997)). In brief, PC12 cells were switched from growth medium to RPMI without and with TS or various other growth factors. After 24 hr, wortmannin and LY294002 were added to the cultures. After another 24 hrs, cells were examined for apoptosis by the DAPI assay, as above.

[2] = tested on: peripheral blood mononuclear cells (PBMC); experiment: IL-6 secretion by PBMC (ELISA); format: cell-based, human; design: IL-6 secretion by PBMC: dose or concentration left out as unconfirmed; details: 24 hrs culture
Procedure: (§2) Primary cultures of human intestinal microvascular endothelial cells (HIMEC) isolated from normal jejunal mucosa/submucosal tissue were prepared as described (Strong et al., Gastroenterology 114: 1244-1256 (1998)). The HIMEC were cultured in fibronectin-coated plasticware in MCDB medium (Sigma) supplemented with 20% FBS, 90 μg/ml heparin and 50 μg/ml endothelial cell growth factor (Sigma). T-24 cells (ATCC Accession No. HTB-4) were cultured in M199 medium supplemented with 10% FBS. PBMC were purified by Ficoll-Paque gradient as described (Current Protocols in Immunology, pp 7.1.1-7.1.2). Vero cells (ATCC Accession No. CCL-81) were grown in RPMI medium with 5% Nu serum and infected with the Silvio X-10/4 of T. cruzi as described previously (Chuenkova et al., J. Exp. Med. 181: 1693-1703, (1995)).
Endothelial cells and T-24 cells were plated on 24-well plates at a density of 1×10^3 cells/well, while peripheral blood mononuclear cells (PBMC) were plated in the similar wells at 1×10^6/well. Triplicat cultures of cells were incubated test agents for a predetermined amount of time. […] Cytokines and chemokines released in the culture supernatants were measured by ELISA assay following the instructions of the manufacturer (Endogen). The cytokines tested were IL-1β, IL-4, IL-8, IL-10, IL-12, IFN-γ, TNF-α, and the chemokines RANTES and MCP-1. Negative controls were cells incubated in medium containing polymixin B at 10 μg/ml, and positive controls were cells incubated with bacterial LPS at the low ng/ml range (for PBMC or HIMEC) or in the μg/ml range for carcinoma T-24 cells. In some experiments, IL-1β, or TNFα were used as positive control for cytokine release.
TR peptides (Table 2) were synthesized at the Tufts Synthesis Facility (Boston, Mass.). Each peptide was purified by HPLC, and the number of amino acids and molecular weight of each peptide verified by mass spectrometry. Peptides were dissolved in growth medium (10% FCS in RPMI) and added at various concentrations to 1×10^6 PBMC/well in 24-well plates. After 24 hrs, IL-6 was assayed by ELISA in the conditioned supernatants.

human Schwann cells = experiment: Serum withdrawal-induced apoptosis of immortalized human Schwann cells (DAPI); format: cell-based; details: for inhibition of apoptosis of Schwann cells by peptides: further studies
PC12 cells [3] = experiment: Trophic factor withdrawal-induced apoptosis of PC12 cells (DAPI/TUNEL); format: cell-based, rat; details: for inhibition of apoptosis of PC12 cells by peptides: further studies; for protection of PC12 cells from apoptosis induced by trophic factor withdrawal: 17 hours
Source text: (§3) PC12 cells were obtained from ATCC (Manassas, Va. (Accession No. CRL-1721)) and cultured on collagen-coated dishes in RPMI 1640 supplemented with 10% horse serum and 5% fetal bovine serum (Greene, L. A. and Tishler, A. S., Proc. Natl. Acad. Sci. USA, 73: 2424-2428 (1976)). For differentiation and survival experiments, cells were washed three times in serum-free RPMI/0.2% BSA, plated in the same medium in collagen-coated plastic dishes at 2×10^5/ml, without and with growth factors, TS, recombinant proteins, synthetic peptides, for the time and concentrations indicated in the Figures.
Cell staining with 4,6-diamino-2-phenylindole (DAPI). Cells were fixed with 4% formaldehyde in PBS for 5 minutes, washed with PBS, stained with 10 μg/ml DAPI (Sigma) for 2 minutes, washed with PBS, and visualized under UV light using a fluorescent microscope. About 300-400 cells were examined under the microscope to determine the percentage of apoptotic cells.
Cell DNA nick end labeling (TUNEL) (Gavrieli, Y., et al., J. Cell. Biol. 119: 493-501 (1992)) assay was performed using a kit purchased from Boehringer Mannheim as described by the manufacturer.
as §1

PC12 cells [4] = experiment: Neurite outgrowth assay in PC12 cells; format: cell-based, rat
Source text: as §3
96-well microtiter plates were coated overnight at 4° C. with the TS or peptides or fragments thereof, or with control proteins laminin (Ln) or bovine serum albumin (BSA) at 500 μg/ml. After removing the compounds, the plates were further incubated with 1% BSA for 1 hour at room temperature and immediately used as substratum for PC12 or N18 (Prasad, K. N., Biol Rev Camb Philos Soc, 66:431-451 (1991)) cells in serum-free RPMI/0.2% BSA. Neurite outgrowth was measured using a phase-contrast microscope 17 hours later.

normal human neutrophils = experiment: IL-6 production by normal human neutrophils; format: cell-based
[5] = tested on: human intestinal microvascular endothelial cells (HIMEC); experiment: IL-6 secretion by HIMEC (ELISA); format: cell-based; details: 24 hrs culture
Procedure: as §2
Endothelial cells and T-24 cells were plated on 24-well plates at a density of 1×10^3 cells/well, while peripheral blood mononuclear cells (PBMC) were plated in the similar wells at 1×10^6/well. Triplicat cultures of cells were incubated test agents for a predetermined amount of time. […] Cytokines and chemokines released in the culture supernatants were measured by ELISA assay following the instructions of the manufacturer (Endogen). The cytokines tested were IL-1β, IL-4, IL-8, IL-10, IL-12, IFN-γ, TNF-α, and the chemokines RANTES and MCP-1. […]

N18 cells = experiment: Neurite outgrowth assay in N18 cells; format: cell-based; details: immobilized proteins coated at 500 μg/ml, 17 hours (FIG. 3A)
Procedure: FIG. 3A is a graph showing that neurite outgrowth in N18 cells is induced by immobilized laminin (Ln), immobilized TS and immobilized fragments of TS. Proteins were immobilized by incubating plates which contained wells filled with solutions of the proteins (protein concentration was 500 μg/ml) at 4° C. overnight. The protein solutions were removed and the plates were further incubated with 1% BSA at room temperature for one hour. N18 cells were cultured in the coated wells in serum-free RPMI-1640/0.2% BSA for 17 hours, and neurite outgrowth was measured by phase-contrast microscopy. […] Ln, laminin; TS, purified T. cruzi trans-sialidase; 7F, recombinant TS from clone 7F; 19Y, recombinant TS from clone 19Y; TS-F, recombinant fragment consisting of amino acid residues 33-666 of TS (SEQ ID NO:2); TS-CC-47, recombinant fragment consisting of amino acid residues 79-478 of TS (SEQ ID NO:2); TS-Cat-47, recombinant fragment consisting of amino acid residues 79-415 of TS (SEQ ID NO:2); BSA, bovine serum albumin.
96-well microtiter plates were coated overnight at 4° C. with the TS or peptides or fragments thereof, or with control proteins laminin (Ln) or bovine serum albumin (BSA) at 500 μg/ml. […] Neurite outgrowth was measured using a phase-contrast microscope 17 hours later.

[6] = tested on: primary cultures of rat Schwann cells; details: reported (Weiner and Chun 1999); cited from earlier work
[7] = neurite outgrowth assay, concentration not given
[8] = synthetic peptides 1 μM, DAPI (FIG. 6B)

Row | Molecule | inhibition of apoptosis of Schwann cells by peptides (human Schwann cells) | inhibition of apoptosis of PC12 cells by peptides (PC12 cells [3]) | neurite outgrowth in PC12 cells (PC12 cells [4]; [7]) | apoptosis suppressing effect of peptide in presence of PI-3 kinase inhibitor LY294002, Schwann cells (human Schwann cells) | apoptosis suppressing effect of peptide in presence of PI-3 kinase inhibitor LY294002, PC12 cells (PC12 cells [3]) | also measured
1 | COC[C@H]1OC(=O)c2coc3c2[C@@]1(C)C1=C(C3=O)[C@@H]2CCC(=O)[C@@]2(C)C[C@H]1OC(C)=O [wortmannin] | – | – | – | – | – | neuronal viability relative to TS-F without wortmannin (PC12 cells [1]; wortmannin with TS-F): 57±2%; neuronal viability relative to TS-F+CNTF without wortmannin (PC12 cells [1]; wortmannin with TS-F+CNTF): 80±3%
2 | DSSAHGAPSTPA [peptide TR1] | – | – | – | – | – | IL-6 secretion by PBMC [2]: less active
3 | DSSAHGAPSTPADSSAHGTPSTPV [TR2] | – | – | – | – | – | IL-6 secretion by PBMC [2]: less active
4 | DSSAHGAPSTPADSSAHGTPSTPVDSSAHGTPSTPA [TR3] | – | – | – | – | – | IL-6 secretion by PBMC [2]: less active
5 | DSSAHGAPSTPADSSAHGTPSTPVDSSAHGTPSTPADSSAHSTPSTPA [TR4] | – | – | – | – | – | IL-6 secretion by PBMC [2]: active in promoting IL-6 release
6 | DSSAHGAPSTPADSSAHGTPSTPVDSSAHGTPSTPADSSAHSTPSTPADSSAHSTPSTPA [TR5] | – | – | – | – | – | IL-6 secretion by PBMC [2]: active in promoting IL-6 release
7 | DSSAHGTPSTPA [peptide TR, control peptide derived from the tandem repeat] | did not inhibit apoptosis | did not inhibit apoptosis | did not induce neurite outgrowth; also recorded: did not promote neurite outgrowth | – | – | –
8 | GNASQNVWEDAYRCVNASTAN [C19Y21] | potent suppressors of apoptosis | potent suppressors of apoptosis | – | inhibited | inhibited | –
9 | GNASQNYWEDAYRC [CYN2] | suppressed apoptosis but was less active | suppressed apoptosis but was less active | – | inhibited | inhibited | –
10 | QPLRRQRVVVVPLSPRLVLLAFCRQRLPLKRMGGSYRCVNASTAN [peptide C44] | potent suppressors of apoptosis | potent suppressors of apoptosis | had direct neurotrophic activity; also recorded: induce dose dependent outgrowth of neurites | inhibited | inhibited | protection of PC12 cells from apoptosis induced by trophic factor withdrawal (PC12 cells [3]; [8]): protected PC12 cells from apoptosis
11 | RQRLPKRMGGSYRC [peptide C14] | potent suppressors of apoptosis | potent suppressors of apoptosis | had direct neurotrophic activity; also recorded: induce dose dependent outgrowth of neurites | inhibited | inhibited | protection of PC12 cells from apoptosis induced by trophic factor withdrawal (PC12 cells [3]; [8]): protected PC12 cells from apoptosis
12 | RQRLPKRMGGSYRCVNASTAH [CFN1] | potent suppressors of apoptosis | potent suppressors of apoptosis | had direct neurotrophic activity | inhibited | inhibited | –
13 | TNF-A | – | – | – | – | – | IL-6 production by normal human neutrophils (normal human neutrophils): did elicit secretion of IL-6
14 | VCNA: neuraminidase from Vibrio cholera, Calbiochem [reference compound] | – | – | did not induce neurite outgrowth | – | – | IL-6 secretion by HIMEC [5]: did not stimulate detectable IL-6 secretion; protection of PC12 cells from apoptosis induced by trophic factor withdrawal (PC12 cells [3]; serum-free RPMI-1640/0.2% BSA, DAPI or TUNEL): did not; neurite outgrowth in PC12 cells (PC12 cells [4]; soluble in serum-free RPMI-1640/0.2% BSA, collagen coated dishes, 16 hours, NGF 0.1 μg/ml, VCNA 2.4 μg/ml, TS 1 μg/ml): does not induce neurite outgrowth
15 | VNASTAN [CYFN] | did not inhibit apoptosis | did not inhibit apoptosis | – | inhibited | inhibited | –
16 | YSVDDGETWE [peptide B2, control peptide] | did not inhibit apoptosis | did not inhibit apoptosis | did not induce neurite outgrowth; also recorded: did not promote neurite outgrowth | – | – | –
17 | laminin [reference compound] | – | – | – | – | – | neurite outgrowth in N18 cells (N18 cells): induced
18 | lysophosphatidic acid | – | – | – | – | – | active dose for primary cultures of rat Schwann cells [6]: ≥ 10 nM
